Literature values as cited in US20220018045A1, “ELECTROSPUN COAXIAL POLYMER FIBERS FOR CONTROLLED INSECT REPELLENT RELEASE” (The Government of the United States of America, as …, priority 2020, published 2022).

Details: ambient conditions

In the case of `CCC(C)OC(=O)N1CCCCC1CCO` (stereo not shown) [picaridin, 1-(1-methylpropoxycarbonyl)-2-(2-hydroxyethyl)piperidine], the vapor pressure is given as ~3.3×10^−2 Pa.
